From PMC10622847 (2023)

Legend:
[1] = test system: WT Eco riboswitch 36-mer, biotinylated (RNA, riboswitch) AUUGGGUUCCCUCACCCCAAUGGUUAAUCAAAAAGG; test: SPR kinetics (1:1 fit); conditions: Na+ 100 mM, Mg2+ 3 mM; 10 mM Na-HEPES pH 7.5, 25 °C; apparent
[2] = test system: WT Eco riboswitch 36-mer (RNA, riboswitch) AUUGGGUUCCCUCACCCCAAUGGUUAAUCAAAAAGG; test: ITC; conditions: 10 μM RNA in cell, 100 μM preQ1 in syringe; buffer as in cited work
[3] = test system: Eco 35-mer (linker ΔG) (RNA, riboswitch) AUUGGGUUCCCUCACCCCAAUGUUAAUCAAAAAGG; test: ITC; conditions: 10 μM RNA in cell, 100 μM preQ1 in syringe; buffer as in cited work
[4] = test system: Eco 34-mer (linker ΔGG) (RNA, riboswitch) AUUGGGUUCCCUCACCCCAAUUUAAUCAAAAAGG; test: ITC; conditions: 10 μM RNA in cell, 100 μM preQ1 in syringe; buffer as in cited work
[5] = test system: Eco 33-mer (linker ΔGGU) (RNA, riboswitch) AUUGGGUUCCCUCACCCCAAUUAAUCAAAAAGG; test: ITC; conditions: 10 μM RNA in cell, 100 μM preQ1 in syringe; buffer as in cited work
[6] = test system: Eco 30-mer (crystal construct) (RNA, riboswitch) UUGGGUUCCCUCACCCCAAUCAUAAAAAGG; test: ITC; conditions: 10 μM RNA in cell, 100 μM preQ1 in syringe; buffer as in cited work
[7] = test system: G6DAP/C16U (RNA, riboswitch, 2,6-diaminopurine at 6) AUUGGGUUCCCUCACUCCAAUGGUUAAUCAAAAAGG; test: SPR steady state (one-site fit); conditions: Na+ 100 mM, Mg2+ 3 mM; 10 mM Na-HEPES pH 7.5, 25 °C; preQ1 1.25 to 200 μM
[8] = test system: U7C (RNA, riboswitch) AUUGGGCUCCCUCACCCCAAUGGUUAAUCAAAAAGG; test: SPR steady state (one-site fit); conditions: Na+ 100 mM, Mg2+ 3 mM; 10 mM Na-HEPES pH 7.5, 25 °C; preQ1 9.7 to 10,000 μM; text gives 4.2 ± 0.3 mM
[9] = test system: C15U (RNA, riboswitch) AUUGGGUUCCCUCAUCCCAAUGGUUAAUCAAAAAGG; test: SPR steady state (one-site fit); conditions: Na+ 100 mM, Mg2+ 3 mM; 10 mM Na-HEPES pH 7.5, 25 °C; preQ1 9.7 to 10,000 μM
[10] = test system: Eco 30-mer (crystal construct) (RNA, riboswitch) UUGGGUUCCCUCACCCCAAUCAUAAAAAGG; test: X-ray crystallography (2.30 Å, Mn2+ SAD); conditions: Mn2+ 5 mM, K+ 100 mM, Mg2+ 2 mM (well solution); Na-cacodylate pH 6.0, spermine, MPD, 20 °C

KD [1] | KD [2] [nM] | KD [3] [nM] | KD [4] [nM] | KD [5] [nM] | KD [6] [nM] | KD [7] | KD [8] | KD [9] | binding [10] | SMILES
15,970 ± 2260 nM |  |  |  |  |  |  |  |  |  | N#Cc1c[nH]c2nc(N)[nH]c(=O)c12
120 ± 6 nM | 57.9 ± 1.5 | 33.4 ± 1.9 | 14.0 ± 1.6 | 30.2 ± 1.3 | 51.9 ± 1.8 | 77,390 ± 5880 nM | 4,220,000 ± 33,000 nM | 7,682,000 ± 206,000 nM | yes | NCc1c[nH]c2nc(N)[nH]c(=O)c12
